In patent publication US20130203649A1, “INHIBITORS OF TLR SIGNALING BY TARGETING TIR DOMAIN INTERFACES” (UNIVERSITY OF MARYLAND, BALTIMORE, priority 2012, published 2013):
Residues, ends and D or L forms follow the SMILES beside them. No end group written: not given here.

How the values were obtained:
TLR2 = biological target: T1, TLR2 (Mus musculus, UniProt Q9QUN7); test: Inhibition of TLR2 signaling in thioglycollate-elicited mouse macrophages (effective concentration, TLR2 agonists P3C/P2C); assay type: cell-based; settings: mouse macrophages, P3C/P2C
T1 construct: Primary peritoneal macrophages were obtained by peritoneal lavage; endogenous in cells; host or cells: thioglycollate-elicited mouse peritoneal macrophages
Description: C57BL/6J mice were obtained from The Jackson Laboratory (Bar Harbor, Me.). Primary peritoneal macrophages were obtained by peritoneal lavage 4 days after intraperitoneal injection (3 ml) of sterile 3% thioglycolate broth. Washed cells were resuspended in RPMI 1640 which contained 2% FBS, 1% penicillin:streptomycin and 2 mM L-glutamine. After plating, cells were incubated overnight at 37° C. and then washed with PBS to remove non-adherent cells. Cells were exposed to peptides 30 min before stimulation with a TLR agonist.
Protein-free Escherichia coli K235 LPS was used at final concentration of 10 ng/ml to stimulate cells. S-[2,3-bis(palmitoyloxy)-(2-RS)-propyl]-N-palmitoyl-(R)-Cys-Ser-Lys4-OH (P3C) and S-[2,3-bis(palmitoyloxy)-(2-RS)-propyl]-[R]-Cys-Ser-Lys4-OH (P2C) were purchased from EMC microcollections GmbH (Tubingen, Germany) and used for cell stimulation at 500 and 50 ng/ml, respectively. Phospho-ERK1/2 and phospho-JNK1/2 rabbit Abs were obtained from Cell Signaling Technology, Inc. β-actin rabbit Ab were from SantaCruz Biotechnology, Inc.
Because of the role TRAP plays in TLR2 signaling, TIRAP TIR-derived decoy peptide effects on TLR2-induced cytokine mRNA expression were examined. Thioglycollate-elicited mouse macrophages were stimulated either by P2C, an agonist that induces signaling through TLR2/TLR6 heterodimerization, or P3C, a TLR2/TLR1 agonist, and effects of TIRAP TR-derived decoy peptides on induction of cytokine mRNA were examined. […] To confirm the inhibitory effect of TR3 and TR6 on P3C-induced signaling, IL-6 and TNF-α concentration was measured in macrophage supernatants collected 5 h after stimulation of cells with P3C. […] Concordantly, both TR3 and TR6 diminished the P3C-induced ERK phosphorylation (FIG. 3D).
C57BL/6J mice were obtained from The Jackson Laboratory (BarHarbor, Me.). Harvesting, culturing, and stimulation of peritoneal macrophages were described in previous publications (1, 18, 19). Escherichia coli K235 LPS (34) was used at the final concentration of 100 ng/ml. The 2,3-bis(palmitoyloxy)-(2-RS)-propyl-N-palmitoyl-(R)-Cys-Ser-Lys4-OH (P3C) and S[2,3-bis(palmitoyloxy)-(2-RS)-propyl]-[R]-Cys-Ser-Lys4-OH (P2C) (EMC Microcollections, Tubingen, Germany) were used at 500 and 50 ng/ml, respectively. Oligonucleotide (ODN) 1668 and low m.w. polyinosinic-polycytidylic acid [poly(I:C)] in complex with LyoVec were obtained from InvivoGen; these agonists were used at 2.5 μM and 400 ng/ml, respectively.

TLR4 = test: LPS-induced STAT1-Y701 phosphorylation in macrophages (immunoblotting); assay type: cell-based, mouse; settings: 2 h after LPS

T1 sequence (Q9QUN7 25-784): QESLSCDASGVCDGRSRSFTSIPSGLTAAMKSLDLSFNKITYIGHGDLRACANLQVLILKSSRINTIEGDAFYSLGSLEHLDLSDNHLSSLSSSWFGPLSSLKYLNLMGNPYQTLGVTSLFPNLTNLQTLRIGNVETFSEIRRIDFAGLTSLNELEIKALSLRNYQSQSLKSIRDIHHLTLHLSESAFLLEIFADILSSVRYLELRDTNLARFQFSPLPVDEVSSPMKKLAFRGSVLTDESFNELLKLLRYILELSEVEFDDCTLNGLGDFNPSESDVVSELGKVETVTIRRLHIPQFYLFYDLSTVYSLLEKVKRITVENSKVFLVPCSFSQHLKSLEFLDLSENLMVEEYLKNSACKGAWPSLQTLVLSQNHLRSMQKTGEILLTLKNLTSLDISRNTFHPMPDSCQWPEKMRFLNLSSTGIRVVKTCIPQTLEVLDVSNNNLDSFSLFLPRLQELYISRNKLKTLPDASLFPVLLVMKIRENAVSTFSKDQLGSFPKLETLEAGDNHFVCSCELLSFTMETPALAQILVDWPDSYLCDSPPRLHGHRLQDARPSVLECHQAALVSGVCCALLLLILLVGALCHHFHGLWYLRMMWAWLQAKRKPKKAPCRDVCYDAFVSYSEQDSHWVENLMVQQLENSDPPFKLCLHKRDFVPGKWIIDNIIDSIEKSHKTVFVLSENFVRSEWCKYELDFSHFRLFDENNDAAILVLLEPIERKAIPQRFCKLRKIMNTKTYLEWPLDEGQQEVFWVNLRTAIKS

Compound	Inhibition of TLR2 signaling (overall) (TLR2)	LPS-induced STAT1-Y701 phosphorylation (TLR4)
CC[C@H](C)[C@H](NC(=O)[C@H](CCCCN)NC(=O)[C@@H](NC(=O)[C@H](CCC(N)=O)NC(=O)[C@@H](N)CCCNC(=N)N)[C@@H](C)CC)C(=O)N[C@@H](Cc1c[nH]c2ccccc12)C(=O)N[C@@H](Cc1ccccc1)C(=O)N[C@@H](CCC(N)=O)C(=O)N[C@@H](CC(N)=O)C(=O)N[C@@H](CCCNC(=N)N)C(=O)N[C@@H](CCCNC(=N)N)C(=O)N[C@@H](CCSC)C(=O)N[C@@H](CCCCN)C(=O)N[C@@H](Cc1c[nH]c2ccccc12)C(=O)N[C@@H](CCCCN)C(=O)N[C@@H](CCCCN)C(=O)N[C@@H](CCC(=O)O)C(=O)N[C@@H](CC(C)C)C(=O)N[C@@H](CS)C(=O)N[C@@H](CCC(N)=O)C(=O)N[C@@H](C)C(=O)N[C@@H](CC(C)C)C(=O)N[C@@H](CO)C(=O)N[C@@H](CCCNC(=N)N)C(=O)N[C@@H](CO)C(=O)N[C@@H](Cc1c[nH]cn1)C(=O)N[C@@H](CS)C(=O)N[C@@H](CCCNC(=N)N)C(=O)O [TR5] (H-RQIKIWFQNRRMKWKKELCQALSRSHCR-OH)	does not	
RQIKIWFQNRRMKWKKCLQDAIDHSGFT [TF5]		inhibit
RQIKIWFQNRRMKWKKEGSQASLRCF [TR3]	inhibits	
